Experiments:
[1] = target: Prostaglandin G/H synthase 1 (Homo sapiens, UniProt P23219)
[2] = Ulcerogenic activity in Albino mouse assessed as histopathological change in stomach by H and E staining based analysis; format: toxicity; conditions: in vivo
[3] = tested on: Rattus norvegicus; assay: Anti-inflammatory activity in carrageen-induced paw edema rat model assessed as change in paw height measured immediately (reference value: 0.56 +/- 0.05 %); format: functional
[4] = target: Carbonic anhydrase 2 (Homo sapiens, UniProt P00918); assay: Binding affinity to human CA2 assessed as inhibition constant by stopped flow kinetic assay
[5] = target: Carbonic anhydrase 12 (Homo sapiens, UniProt O43570); assay: Binding affinity to human CA12 assessed as inhibition constant by stopped flow kinetic assay
Carbonic anhydrase 12, sequence (O43570 whole entry): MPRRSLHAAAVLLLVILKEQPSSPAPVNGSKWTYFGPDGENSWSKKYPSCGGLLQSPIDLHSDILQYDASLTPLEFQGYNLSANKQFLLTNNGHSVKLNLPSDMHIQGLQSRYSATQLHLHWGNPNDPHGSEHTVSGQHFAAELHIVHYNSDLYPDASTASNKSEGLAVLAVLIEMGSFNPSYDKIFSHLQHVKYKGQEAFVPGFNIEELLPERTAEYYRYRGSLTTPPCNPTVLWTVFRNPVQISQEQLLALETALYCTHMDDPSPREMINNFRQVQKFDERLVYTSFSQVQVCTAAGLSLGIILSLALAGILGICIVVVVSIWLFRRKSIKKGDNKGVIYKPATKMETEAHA

[6] = tested on: Rattus norvegicus; assay: Anti-inflammatory activity in carrageen-induced paw edema rat model assessed as change in paw height measured after 1 hr (reference value: 0.68 +/- 0.04 %); format: functional
[7] = organism: Mus musculus; assay: Analgesic activity in mouse assessed protection against acetic acid-induced writhing measured for 20 mins relative to control; format: functional
[8] = tested on: Rattus norvegicus; assay: Anti-inflammatory activity in carrageen-induced paw edema rat model assessed as inhibition of edema measured after 3 hrs relative to control; format: functional
[9] = tested on: Rattus norvegicus; assay: Anti-inflammatory activity in carrageen-induced paw edema rat model assessed as change in paw height measured after 3 hrs (reference value: 0.78 +/- 0.08 %); format: functional
[10] = target: Carbonic anhydrase 1 (Homo sapiens, UniProt P00915); assay: Binding affinity to human CA1 assessed as inhibition constant by stopped flow kinetic assay
Carbonic anhydrase 1, sequence (P00915 whole entry): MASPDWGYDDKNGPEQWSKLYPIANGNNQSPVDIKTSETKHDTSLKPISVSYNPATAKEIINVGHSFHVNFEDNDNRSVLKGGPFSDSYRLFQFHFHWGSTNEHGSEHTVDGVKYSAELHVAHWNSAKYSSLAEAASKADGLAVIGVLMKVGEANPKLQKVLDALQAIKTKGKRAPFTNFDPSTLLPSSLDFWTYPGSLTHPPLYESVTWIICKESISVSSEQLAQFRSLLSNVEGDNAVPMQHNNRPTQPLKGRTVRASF

[11] = target: Carbonic anhydrase 9 (Homo sapiens, UniProt Q16790); assay: Binding affinity to human CA9 assessed as inhibition constant by stopped flow kinetic assay
[12] = tested on: Rattus norvegicus; assay: Anti-inflammatory activity in carrageen-induced paw edema rat model assessed as change in paw height measured after 2 hrs (reference value: 0.64 +/- 0.05 %); format: functional
[13] = organism: Mus musculus; assay: Analgesic activity in mouse assessed reduction in number of acetic acid-induced writhing measured for 20 mins (reference value: 40 +/- 2.9); format: functional
[14] = Ulcerogenic activity in Albino mouse assessed as inflammation in stomach by H and E staining based analysis; format: toxicity; conditions: in vivo

Prostaglandin G/H synthase 1, sequence (P23219 whole entry): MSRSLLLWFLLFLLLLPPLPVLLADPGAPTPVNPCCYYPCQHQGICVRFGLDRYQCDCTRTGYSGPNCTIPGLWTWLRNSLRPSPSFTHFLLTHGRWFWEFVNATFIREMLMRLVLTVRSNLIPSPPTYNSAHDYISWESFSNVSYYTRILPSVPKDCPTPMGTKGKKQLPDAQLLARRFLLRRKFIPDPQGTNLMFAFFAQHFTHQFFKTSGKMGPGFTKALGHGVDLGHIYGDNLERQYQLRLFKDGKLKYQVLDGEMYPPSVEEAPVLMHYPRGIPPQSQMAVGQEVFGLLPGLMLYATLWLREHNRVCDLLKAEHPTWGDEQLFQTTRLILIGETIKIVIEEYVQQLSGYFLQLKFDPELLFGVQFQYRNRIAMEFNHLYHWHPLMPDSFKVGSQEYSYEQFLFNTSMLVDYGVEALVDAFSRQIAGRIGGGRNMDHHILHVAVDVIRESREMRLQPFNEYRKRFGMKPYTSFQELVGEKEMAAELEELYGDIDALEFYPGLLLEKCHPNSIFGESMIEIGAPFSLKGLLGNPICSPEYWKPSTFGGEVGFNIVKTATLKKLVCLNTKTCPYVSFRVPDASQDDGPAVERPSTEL

Compound: Nc1c(C(=O)N/N=C/c2ccccc2[N+](=O)[O-])cnn1-c1ccc(S(N)(=O)=O)cc1
- IC50 [1]: 4.8 µM

Compound: Nc1c(C(=O)N/N=C/c2cccc([N+](=O)[O-])c2)cnn1-c1ccc(S(N)(=O)=O)cc1
- IC50 [1]: 5 µM

Compound: Nc1c(C(=O)N/N=C/c2ccccc2)cnn1-c1ccc(S(N)(=O)=O)cc1
- Activity [2]: Non-Toxic
- IC50 [1]: 10.4 µM

Compound: Nc1c(C(=O)N/N=C/c2ccc([N+](=O)[O-])cc2)cnn1-c1ccc(S(N)(=O)=O)cc1
- IC50 [1]: 5 µM

Compound: Nc1c(C(=O)N/N=C/c2cccs2)cnn1-c1ccc(S(N)(=O)=O)cc1
- IC50 [1]: 9.5 µM

Compound: Nc1c(C(=O)N/N=C/c2ccccc2Cl)cnn1-c1ccc(S(N)(=O)=O)cc1
- IC50 [1]: 10.5 µM

Compound: COc1ccc(/C=N/NC(=O)c2cnn(-c3ccc(S(N)(=O)=O)cc3)c2N)cc1
- IC50 [1]: 6 µM

Compound: CN(C)c1ccc(/C=N/NC(=O)c2cnn(-c3ccc(S(N)(=O)=O)cc3)c2N)cc1
- IC50 [1]: 7 µM

Compound: Nc1c(C(=O)N/N=C/c2ccc(O)cc2)cnn1-c1ccc(S(N)(=O)=O)cc1
- Activity [3]: 0.48%
- Ki [4]: 0.0269 µM
- Ki [5]: 0.0058 µM
- Activity [6]: 0.52%
- Activity [7]: 52.5%
- inhibition (INH) [8]: 31%
- Activity [2]: Non-Toxic
- IC50 [1]: 12.5 µM
- Activity [9]: 0.54%
- Ki [10]: 0.134 µM
- Ki [11]: 0.0489 µM
- Activity [12]: 0.62%
- Activity [13]: 19

Compound: Nc1c(C(=O)N/N=C/c2ccc(Cl)cc2)cnn1-c1ccc(S(N)(=O)=O)cc1
- IC50 [1]: 8 µM

Compound: Cc1ccc(-c2cc(C(F)(F)F)nn2-c2ccc(S(N)(=O)=O)cc2)cc1 [CELECOXIB]
- Activity [3]: 0.5%
- Activity [6]: 0.44%
- Activity [7]: 60%
- inhibition (INH) [8]: 38.5%
- Activity [2]: Non-Toxic
- Activity [9]: 0.48%
- Activity [12]: 0.52%
- Activity [13]: 16

Compound: O=C(O)Cc1ccccc1Nc1c(Cl)cccc1Cl [DICLOFENAC]
- Activity [3]: 0.52%
- Activity [14]: Toxic
- Activity [6]: 0.28%
- Activity [7]: 70%
- inhibition (INH) [8]: 59%
- Activity [2]: Toxic
- Activity [9]: 0.32%
- Activity [12]: 0.32%
- Activity [13]: 12
